Measurements as given in ChEMBL document CHEMBL1201862, “PubChem BioAssay data set” (2004).
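Following 48 hours of exposure in 96-well plates, responses at five concentrations were used to interpolate endpoints linearly. GI50 is the concentration that inhibits growth by half.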 The source made the active and inactive calls. Cut-off read from the data, not from the text of the source: active = GI50 up to about 1.1 µM and inactive = higher.

Legend:
Experiment in all cases: DTP human tumour cell line panel, 48 h
[1] = system: CCRF-CEM
[2] = system: SK-MEL-2
[3] = system: HCT-15
[4] = system: K562
[5] = system: HOP-18
[6] = system: HCT-116
[7] = system: NCI-H23
[8] = system: MCF7
[9] = system: LOX IMVI
[10] = system: A498
[11] = system: SW-620
[12] = system: SF-268
[13] = system: M19-MEL
[14] = system: A549
[15] = system: SF-295
[16] = system: OVCAR-4
[17] = system: NCI-H522
[18] = system: XF498
[19] = system: SK-MEL-28
[20] = system: U-251
[21] = system: OVCAR-3
[22] = system: NCI/ADR-RES
[23] = system: CAKI-1
[24] = system: EKVX
[25] = system: NCI-H460
[26] = system: HOP-62
[27] = system: DMS-114
[28] = system: IGROV-1
[29] = system: HOP-92
[30] = system: SF-539
[31] = system: NCI-H226
[32] = system: RXF 393
[33] = system: HT-29
[34] = system: SNB-78
[35] = system: SN12C
[36] = system: DMS-273
[37] = system: UACC-62
[38] = system: SNB-19
[39] = system: HCC 2998
[40] = system: SK-OV-3
[41] = system: HL-60
[42] = system: MOLT-4
[43] = system: COLO 205
[44] = system: KM12
[45] = system: KM-20L2
[46] = system: SK-MEL-5
[47] = system: UO-31
[48] = system: SNB-75
[49] = system: DLD-1
[50] = system: OVCAR-5
[51] = system: OVCAR-8
[52] = system: UACC-257
[53] = system: RPMI-8226
[54] = system: Malme-3M
[55] = system: ACHN
[56] = system: SR
[57] = system: M14
[58] = system: LXFL 529
[59] = system: TK-10
[60] = system: 786-0

COc1cc(C2(c3ncc[nH]3)SSSCC2O)ccc1O (configuration not stated)
GI50 [1]: 11.9 µM (inactive)
GI50 [2]: > 100 µM (inactive)
GI50 [3]: 33.1 µM
GI50 [4]: 23.4 µM (inactive)
GI50 [5]: > 66.4 µM (inactive)
GI50 [6]: 32.6 µM (inactive)
GI50 [7]: 60.7 µM (inactive)
GI50 [8]: 39.6 µM (inactive)
GI50 [9]: 19.1 µM (inactive)
GI50 [10]: 79.3 µM (inactive)
GI50 [11]: 33 µM (inactive)
GI50 [12]: 15.8 µM (inactive)
GI50 [13]: 12.2 µM (inactive)
GI50 [14]: > 57.4 µM (inactive)
GI50 [15]: 39.1 µM (inactive)
GI50 [16]: 22.2 µM (inactive)
GI50 [17]: 29.4 µM (inactive)
GI50 [18]: > 71 µM (inactive)
GI50 [19]: > 100 µM (inactive)
GI50 [20]: > 56.2 µM (inactive)
GI50 [21]: 32.2 µM (inactive)
GI50 [22]: > 40.6 µM (inactive)
GI50 [23]: 86.1 µM (inactive)
GI50 [24]: 94 µM (inactive)
GI50 [25]: > 46.2 µM (inactive)
GI50 [26]: > 66.4 µM (inactive)
GI50 [27]: 18.2 µM (inactive)
GI50 [28]: 47.2 µM (inactive)
GI50 [29]: 6.25 µM (inactive)
GI50 [30]: > 59 µM (inactive)
GI50 [31]: 66.4 µM (inactive)
GI50 [32]: 30.1 µM (inactive)
GI50 [33]: 38 µM (inactive)
GI50 [34]: 34.2 µM (inactive)
GI50 [35]: 47.8 µM (inactive)
GI50 [36]: 30.1 µM (inactive)
GI50 [37]: 22.6 µM (inactive)
GI50 [38]: > 87.7 µM (inactive)
GI50 [39]: 27.9 µM (inactive)
GI50 [40]: 66.4 µM (inactive)
GI50 [41]: 29.6 µM (inactive)
GI50 [42]: 16.5 µM (inactive)
GI50 [43]: 25.6 µM (inactive)
GI50 [44]: > 100 µM (inactive)
GI50 [45]: > 92.5 µM (inactive)
GI50 [46]: 11.7 µM (inactive)
GI50 [47]: 65.9 µM (inactive)
GI50 [48]: > 100 µM (inactive)
GI50 [49]: 58.5 µM (inactive)
GI50 [50]: > 100 µM (inactive)
GI50 [51]: 36.9 µM (inactive)
GI50 [52]: 18.4 µM (inactive)
GI50 [53]: 22.6 µM (inactive)

CC(C)COC(=O)N1N=NC2C3OC(CC3=O)C21 (configuration not stated)
GI50 [54]: > 100 µM (inactive)
GI50 [1]: > 100 µM (inactive)
GI50 [2]: > 100 µM (inactive)
GI50 [3]: > 100 µM
GI50 [55]: > 100 µM (inactive)
GI50 [4]: > 100 µM (inactive)
GI50 [5]: > 100 µM (inactive)
GI50 [6]: > 100 µM (inactive)
GI50 [56]: > 100 µM (inactive)
GI50 [7]: > 100 µM (inactive)
GI50 [9]: > 100 µM (inactive)
GI50 [10]: > 100 µM (inactive)
GI50 [11]: > 100 µM (inactive)
GI50 [12]: > 100 µM (inactive)
GI50 [13]: > 100 µM (inactive)
GI50 [15]: > 100 µM (inactive)
GI50 [16]: > 100 µM (inactive)
GI50 [17]: > 100 µM (inactive)
GI50 [18]: > 100 µM (inactive)
GI50 [19]: > 100 µM (inactive)
GI50 [57]: > 100 µM (inactive)
GI50 [20]: > 100 µM (inactive)
GI50 [21]: > 100 µM (inactive)
GI50 [23]: > 100 µM (inactive)
GI50 [58]: > 100 µM (inactive)
GI50 [24]: > 100 µM (inactive)
GI50 [25]: > 100 µM (inactive)
GI50 [26]: > 100 µM (inactive)
GI50 [27]: > 100 µM (inactive)
GI50 [28]: > 31.6 µM (inactive)
GI50 [29]: > 100 µM (inactive)
GI50 [30]: > 100 µM (inactive)
GI50 [31]: > 100 µM (inactive)
GI50 [59]: > 100 µM (inactive)
GI50 [32]: > 100 µM (inactive)
GI50 [33]: > 100 µM (inactive)
GI50 [35]: > 100 µM (inactive)
GI50 [36]: > 100 µM (inactive)
GI50 [37]: 43.6 µM (inactive)
GI50 [38]: > 100 µM (inactive)
GI50 [39]: > 100 µM (inactive)
GI50 [40]: 40.4 µM (inactive)
GI50 [41]: > 100 µM (inactive)
GI50 [42]: > 100 µM (inactive)
GI50 [43]: > 100 µM (inactive)
GI50 [44]: > 100 µM (inactive)
GI50 [45]: > 100 µM (inactive)
GI50 [46]: > 100 µM (inactive)
GI50 [47]: > 100 µM (inactive)
GI50 [48]: > 100 µM (inactive)
GI50 [49]: > 100 µM (inactive)
GI50 [50]: > 100 µM (inactive)
GI50 [51]: > 100 µM (inactive)
GI50 [60]: > 100 µM (inactive)
GI50 [52]: > 100 µM (inactive)
GI50 [53]: > 100 µM (inactive)

O=C1C2=C(C3=NCCc4c[nH]c1c43)c1c(Br)cc(Br)cc1CCN2
GI50 [1]: 2.58 µM (inactive)
GI50 [2]: 3.33 µM (inactive)
GI50 [3]: 2.21 µM
GI50 [4]: 2.68 µM (inactive)
GI50 [5]: 3.15 µM (inactive)
GI50 [6]: 1.84 µM (inactive)
GI50 [7]: 1.79 µM (inactive)
GI50 [8]: 1.8 µM (inactive)
GI50 [9]: 1.23 µM (inactive)
GI50 [10]: 11.2 µM (inactive)
GI50 [11]: 2.24 µM (inactive)
GI50 [12]: 2.59 µM (inactive)
GI50 [13]: 0.661 µM (active)
GI50 [14]: 2.73 µM (inactive)
GI50 [15]: 2.42 µM (inactive)
GI50 [16]: 2.22 µM (inactive)
GI50 [17]: 1.66 µM (inactive)
GI50 [18]: 10.7 µM (inactive)
GI50 [19]: 8.49 µM (inactive)
GI50 [20]: 3.66 µM (inactive)
GI50 [21]: 2.77 µM (inactive)
GI50 [22]: 4.71 µM (inactive)
GI50 [23]: 13.4 µM (inactive)
GI50 [24]: 3.01 µM (inactive)
GI50 [25]: 3.03 µM (inactive)
GI50 [26]: 14.6 µM (inactive)
GI50 [27]: 2.02 µM (inactive)
GI50 [28]: 4.06 µM (inactive)
GI50 [29]: 9.18 µM (inactive)
GI50 [30]: 3.42 µM (inactive)
GI50 [31]: 4.41 µM (inactive)
GI50 [32]: 4.75 µM (inactive)
GI50 [33]: 2.45 µM (inactive)
GI50 [34]: 5.55 µM (inactive)
GI50 [35]: 2.28 µM (inactive)
GI50 [36]: 3.12 µM (inactive)
GI50 [37]: 1.14 µM (inactive)
GI50 [38]: 11.2 µM (inactive)
GI50 [39]: 2.01 µM (inactive)
GI50 [40]: 12.2 µM (inactive)
GI50 [41]: 1.62 µM (inactive)
GI50 [42]: 1.35 µM (inactive)
GI50 [43]: 1.29 µM (inactive)
GI50 [44]: 2.56 µM (inactive)
GI50 [45]: 2.75 µM (inactive)
GI50 [46]: 1.62 µM (inactive)
GI50 [47]: 6.22 µM (inactive)
GI50 [48]: 8.93 µM (inactive)
GI50 [49]: 1.79 µM (inactive)
GI50 [50]: 4.19 µM (inactive)
GI50 [51]: 2.98 µM (inactive)
GI50 [52]: 1.5 µM (inactive)
GI50 [53]: 1.24 µM (inactive)
